Source: paper PMC5762315, “Inhibition of polo-like kinase 4 (PLK4): a new therapeutic option for rhabdoid tumors and pediatric medulloblastoma” (Oncotarget, 2017)
Where “and” joins values, the source holds several entries; their conditions need not be identical. Identical values can stand only once.

Tests used:
Assay in all cases: biochemical
Type in all cases: biochemical
[1] = biological target: various kinases (Homo sapiens, UniProt O60674)
[2] = biological target: various kinases (Homo sapiens, UniProt O76039); conditions: CDKL5
[3] = biological target: various kinases (Homo sapiens, UniProt P08069); conditions: IGF1R
[4] = biological target: various kinases (Homo sapiens, UniProt P08581, M1250T); conditions: MET M1250T
[5] = biological target: various kinases (Homo sapiens, UniProt P08631); conditions: HCK
[6] = biological target: various kinases (Homo sapiens, UniProt P11309); conditions: PIM1
Sequence of various kinases (Homo sapiens, UniProt P11309) (P11309 whole entry): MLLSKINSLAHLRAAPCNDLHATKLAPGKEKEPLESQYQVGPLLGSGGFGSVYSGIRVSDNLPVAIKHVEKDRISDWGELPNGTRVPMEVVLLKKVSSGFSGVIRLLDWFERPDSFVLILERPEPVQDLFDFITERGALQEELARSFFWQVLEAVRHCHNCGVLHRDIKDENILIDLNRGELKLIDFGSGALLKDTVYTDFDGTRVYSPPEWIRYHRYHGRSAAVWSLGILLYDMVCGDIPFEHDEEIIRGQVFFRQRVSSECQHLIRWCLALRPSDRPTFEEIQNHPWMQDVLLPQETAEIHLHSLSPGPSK

[7] = biological target: various kinases (Homo sapiens, UniProt P12931); conditions: kinase SRC; ZLYTE
Sequence of various kinases (Homo sapiens, UniProt P12931) (P12931 whole entry): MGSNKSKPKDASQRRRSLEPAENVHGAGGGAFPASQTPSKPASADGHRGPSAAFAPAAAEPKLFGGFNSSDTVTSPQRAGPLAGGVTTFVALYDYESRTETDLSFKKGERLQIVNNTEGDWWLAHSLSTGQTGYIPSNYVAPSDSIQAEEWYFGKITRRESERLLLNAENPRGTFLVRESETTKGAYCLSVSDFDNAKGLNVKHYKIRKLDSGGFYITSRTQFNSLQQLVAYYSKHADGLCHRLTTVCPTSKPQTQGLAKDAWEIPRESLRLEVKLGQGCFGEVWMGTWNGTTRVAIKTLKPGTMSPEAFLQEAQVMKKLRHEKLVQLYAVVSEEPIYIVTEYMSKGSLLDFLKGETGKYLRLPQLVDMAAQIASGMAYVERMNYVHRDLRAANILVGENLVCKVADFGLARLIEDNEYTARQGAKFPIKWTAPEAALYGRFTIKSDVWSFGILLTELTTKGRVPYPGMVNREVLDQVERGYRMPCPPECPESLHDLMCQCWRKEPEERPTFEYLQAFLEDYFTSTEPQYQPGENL

[8] = biological target: various kinases (Homo sapiens, UniProt P41279); conditions: MAP3K8 (COT)
[9] = biological target: various kinases (Homo sapiens, UniProt P49674); conditions: CSNK1E (CK1 epsilon)
Sequence of various kinases (Homo sapiens, UniProt P49674) (P49674 whole entry): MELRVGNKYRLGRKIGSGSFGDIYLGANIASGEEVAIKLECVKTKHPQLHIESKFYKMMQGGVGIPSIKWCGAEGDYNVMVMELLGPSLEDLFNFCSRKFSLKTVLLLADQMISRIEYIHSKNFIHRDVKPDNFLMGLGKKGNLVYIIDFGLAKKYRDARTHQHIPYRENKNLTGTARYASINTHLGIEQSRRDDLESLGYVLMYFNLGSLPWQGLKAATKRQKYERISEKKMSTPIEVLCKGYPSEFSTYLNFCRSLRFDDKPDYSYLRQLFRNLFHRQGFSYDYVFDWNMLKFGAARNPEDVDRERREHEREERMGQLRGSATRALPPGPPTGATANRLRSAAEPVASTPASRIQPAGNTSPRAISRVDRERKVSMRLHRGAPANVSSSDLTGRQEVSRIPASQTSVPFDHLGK

[10] = biological target: various kinases (Homo sapiens, UniProt P53350); conditions: kinase PLK1; ZLYTE
Sequence of various kinases (Homo sapiens, UniProt P53350) (P53350 whole entry): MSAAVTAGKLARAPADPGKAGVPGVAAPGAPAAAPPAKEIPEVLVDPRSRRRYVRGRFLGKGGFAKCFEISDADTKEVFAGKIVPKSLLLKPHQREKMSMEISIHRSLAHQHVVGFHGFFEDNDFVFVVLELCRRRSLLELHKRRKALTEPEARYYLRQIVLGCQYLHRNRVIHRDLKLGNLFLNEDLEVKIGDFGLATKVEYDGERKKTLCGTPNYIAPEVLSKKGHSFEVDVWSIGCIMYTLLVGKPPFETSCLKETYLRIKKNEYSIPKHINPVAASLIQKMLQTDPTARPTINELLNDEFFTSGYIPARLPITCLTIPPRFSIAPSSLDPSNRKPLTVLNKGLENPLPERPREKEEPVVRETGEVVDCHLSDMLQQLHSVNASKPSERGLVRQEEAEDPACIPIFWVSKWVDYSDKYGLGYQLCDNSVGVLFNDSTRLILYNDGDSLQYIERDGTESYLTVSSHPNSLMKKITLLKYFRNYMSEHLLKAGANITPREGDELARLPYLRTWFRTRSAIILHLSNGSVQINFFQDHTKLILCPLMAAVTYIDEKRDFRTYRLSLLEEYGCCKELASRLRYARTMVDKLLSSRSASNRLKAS

[11] = biological target: various kinases (Homo sapiens, UniProt P54646)
Sequence of various kinases (Homo sapiens, UniProt P54646) (P54646 whole entry): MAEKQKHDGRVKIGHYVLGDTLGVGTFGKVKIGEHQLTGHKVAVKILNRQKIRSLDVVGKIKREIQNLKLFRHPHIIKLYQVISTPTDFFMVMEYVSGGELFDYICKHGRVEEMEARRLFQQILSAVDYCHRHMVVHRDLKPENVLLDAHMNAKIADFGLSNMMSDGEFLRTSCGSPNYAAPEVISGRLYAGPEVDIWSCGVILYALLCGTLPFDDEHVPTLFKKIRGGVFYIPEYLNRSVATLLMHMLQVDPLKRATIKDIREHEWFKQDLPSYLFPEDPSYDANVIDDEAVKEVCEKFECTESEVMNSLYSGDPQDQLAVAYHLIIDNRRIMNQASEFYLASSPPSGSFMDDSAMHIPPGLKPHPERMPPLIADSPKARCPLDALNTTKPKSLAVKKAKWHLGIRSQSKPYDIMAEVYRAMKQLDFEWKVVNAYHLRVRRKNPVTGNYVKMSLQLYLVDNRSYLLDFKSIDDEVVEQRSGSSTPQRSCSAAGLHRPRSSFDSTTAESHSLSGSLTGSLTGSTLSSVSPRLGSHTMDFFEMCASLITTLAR

[12] = biological target: various kinases (Homo sapiens, UniProt Q00537); conditions: CDK17/cyclin Y
Sequence of various kinases (Homo sapiens, UniProt Q00537) (Q00537 whole entry): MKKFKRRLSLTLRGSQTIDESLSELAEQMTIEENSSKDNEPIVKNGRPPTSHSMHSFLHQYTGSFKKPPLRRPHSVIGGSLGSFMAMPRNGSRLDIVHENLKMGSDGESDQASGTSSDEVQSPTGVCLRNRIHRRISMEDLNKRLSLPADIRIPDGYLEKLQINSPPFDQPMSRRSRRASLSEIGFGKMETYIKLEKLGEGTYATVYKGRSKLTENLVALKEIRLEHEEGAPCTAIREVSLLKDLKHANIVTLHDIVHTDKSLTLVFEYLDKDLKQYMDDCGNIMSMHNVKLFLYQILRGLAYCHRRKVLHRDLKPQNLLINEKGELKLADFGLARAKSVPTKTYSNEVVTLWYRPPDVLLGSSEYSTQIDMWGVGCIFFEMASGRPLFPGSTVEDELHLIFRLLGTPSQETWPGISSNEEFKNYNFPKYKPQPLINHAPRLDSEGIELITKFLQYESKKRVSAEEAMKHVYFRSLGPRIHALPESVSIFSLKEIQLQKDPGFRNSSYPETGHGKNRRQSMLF

[13] = biological target: various kinases (Homo sapiens, UniProt Q13557); conditions: CAMK2D (CaMKII delta)
[14] = biological target: various kinases (Homo sapiens, UniProt Q14164); conditions: IKBKE (IKK epsilon)
[15] = biological target: various kinases (Homo sapiens, UniProt Q14289); conditions: kinase PTK2B (FAK2); ZLYTE
Sequence of various kinases (Homo sapiens, UniProt Q14289) (Q14289 whole entry): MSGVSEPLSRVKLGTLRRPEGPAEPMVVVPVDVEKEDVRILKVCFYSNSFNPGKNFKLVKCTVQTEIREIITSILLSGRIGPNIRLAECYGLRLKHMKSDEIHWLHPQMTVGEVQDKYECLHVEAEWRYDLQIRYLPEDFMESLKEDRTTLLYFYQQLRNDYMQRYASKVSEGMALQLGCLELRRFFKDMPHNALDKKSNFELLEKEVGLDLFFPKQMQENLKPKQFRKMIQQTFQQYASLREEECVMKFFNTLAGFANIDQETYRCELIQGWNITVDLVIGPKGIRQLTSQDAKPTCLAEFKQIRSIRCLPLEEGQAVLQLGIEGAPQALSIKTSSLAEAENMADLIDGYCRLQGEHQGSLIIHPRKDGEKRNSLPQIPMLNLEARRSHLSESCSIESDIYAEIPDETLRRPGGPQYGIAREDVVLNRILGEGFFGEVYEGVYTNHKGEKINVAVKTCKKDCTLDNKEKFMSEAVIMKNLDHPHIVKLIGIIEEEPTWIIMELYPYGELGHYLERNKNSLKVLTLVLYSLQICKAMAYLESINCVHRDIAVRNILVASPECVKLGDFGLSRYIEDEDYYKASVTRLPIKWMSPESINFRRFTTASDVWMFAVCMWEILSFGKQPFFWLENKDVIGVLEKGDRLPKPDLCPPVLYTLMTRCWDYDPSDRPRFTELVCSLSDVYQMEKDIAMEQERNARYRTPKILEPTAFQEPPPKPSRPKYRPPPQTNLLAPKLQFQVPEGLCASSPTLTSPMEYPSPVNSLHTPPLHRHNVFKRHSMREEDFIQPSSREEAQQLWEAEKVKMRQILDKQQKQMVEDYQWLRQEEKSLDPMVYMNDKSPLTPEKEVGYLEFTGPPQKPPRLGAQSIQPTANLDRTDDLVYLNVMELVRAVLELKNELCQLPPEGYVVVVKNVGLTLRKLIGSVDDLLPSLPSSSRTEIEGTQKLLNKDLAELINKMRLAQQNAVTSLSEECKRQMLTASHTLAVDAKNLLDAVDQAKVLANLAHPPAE

[16] = biological target: various kinases (Homo sapiens, UniProt Q52WX2); conditions: kinase SBK1; ZLYTE
Sequence of various kinases (Homo sapiens, UniProt Q52WX2) (Q52WX2 whole entry): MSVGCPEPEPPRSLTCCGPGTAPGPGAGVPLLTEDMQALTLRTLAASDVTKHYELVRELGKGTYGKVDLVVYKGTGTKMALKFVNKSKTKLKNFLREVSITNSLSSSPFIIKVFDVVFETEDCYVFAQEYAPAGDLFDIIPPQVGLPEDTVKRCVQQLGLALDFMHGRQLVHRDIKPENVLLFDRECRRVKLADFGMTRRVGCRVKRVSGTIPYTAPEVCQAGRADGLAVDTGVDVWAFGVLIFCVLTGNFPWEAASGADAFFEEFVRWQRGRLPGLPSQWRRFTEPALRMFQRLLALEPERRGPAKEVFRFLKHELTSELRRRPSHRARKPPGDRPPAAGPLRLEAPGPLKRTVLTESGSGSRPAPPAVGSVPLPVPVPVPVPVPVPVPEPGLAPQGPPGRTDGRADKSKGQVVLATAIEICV

[17] = biological target: various kinases (Homo sapiens, UniProt Q56UN5); conditions: MAP3K19 (YSK4)
[18] = biological target: various kinases (Homo sapiens, UniProt Q8N4C8); conditions: MINK1
[19] = biological target: various kinases (Homo sapiens, UniProt Q96L34); conditions: MARK4
[20] = biological target: various kinases (Homo sapiens, UniProt Q9UPE1); conditions: kinase STK23 (MSSK1); ZLYTE
Sequence of various kinases (Homo sapiens, UniProt Q9UPE1) (Q9UPE1 whole entry): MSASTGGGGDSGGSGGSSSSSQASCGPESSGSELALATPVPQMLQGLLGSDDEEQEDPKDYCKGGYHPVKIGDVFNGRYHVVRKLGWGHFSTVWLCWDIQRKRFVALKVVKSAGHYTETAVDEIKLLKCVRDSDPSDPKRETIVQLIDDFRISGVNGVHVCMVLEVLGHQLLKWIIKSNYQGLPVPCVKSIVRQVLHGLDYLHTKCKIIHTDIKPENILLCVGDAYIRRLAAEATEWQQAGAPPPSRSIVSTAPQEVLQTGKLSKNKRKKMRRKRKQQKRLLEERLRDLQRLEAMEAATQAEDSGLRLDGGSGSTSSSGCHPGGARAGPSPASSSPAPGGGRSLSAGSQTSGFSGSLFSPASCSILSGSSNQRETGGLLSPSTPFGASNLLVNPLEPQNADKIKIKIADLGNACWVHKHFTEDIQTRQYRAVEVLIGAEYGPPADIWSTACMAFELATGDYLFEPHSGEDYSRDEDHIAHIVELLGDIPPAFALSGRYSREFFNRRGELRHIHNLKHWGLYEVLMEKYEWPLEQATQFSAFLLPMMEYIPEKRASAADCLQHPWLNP

[21] = biological target: various kinases (Homo sapiens, UniProt Q9UQM7); conditions: CAMK2A (CaMKII alpha)
[22] = biological target: various kinases (Homo sapiens, UniProt Q9Y5S2); conditions: CDC42 BPB (MRCKB)

SMILES: COc1ccc2c(c1)[C@]1(C[C@H]1c1ccc3c(/C=C/c4ccc(CN5C[C@@H](C)O[C@@H](C)C5)cc4)n[nH]c3c1)C(=O)N2 [CFI-400945]
- % Inhibition ([1]; JAK2): 9%
- % Inhibition ([1]; JAK2 JH1 JH2): 7%
- % Inhibition [2]: 5%
- % Inhibition [3]: 8%
- % Inhibition [4]: 11%
- % Inhibition [5]: 13% and 11%
- % Inhibition [6]: 2% and 3%
- % Inhibition Average [7]: 13%
- % Inhibition Duplicate #1 [7]: 13%
- % Inhibition Duplicate #2 [7]: 13%
- % Inhibition [8]: 7%
- % Inhibition [9]: 7% and 6%
- % Inhibition Average [10]: 5%
- % Inhibition Duplicate #1 [10]: 6%
- % Inhibition Duplicate #2 [10]: 5%
- % Inhibition ([11]; AMPK (A2/B1/G2)): 27% and 22%
- % Inhibition ([11]; AMPK (A2/B1/G3)): 9% and 15%
- % Inhibition ([11]; AMPK (A2/B2/G3)): 9% and 10%
- % Inhibition ([11]; AMPK A2/B1/G1): 5% and 6%
- % Inhibition [12]: -1% and 8%
- % Inhibition [13]: 28% and 37%
- % Inhibition [14]: -1% and 1%
- % Inhibition Average [15]: 3%
- % Inhibition Duplicate #1 [15]: 3%
- % Inhibition Duplicate #2 [15]: 3%
- % Inhibition Average [16]: 0%
- % Inhibition Duplicate #1 [16]: -1%
- % Inhibition Duplicate #2 [16]: 2%
- % Inhibition [17]: 7% and 4%
- % Inhibition [18]: 12% and 18%
- % Inhibition [19]: 8% and 3%
- % Inhibition Average [20]: -1%
- % Inhibition Duplicate #1 [20]: -1%
- % Inhibition Duplicate #2 [20]: -2%
- % Inhibition [21]: -3% and -1%
- % Inhibition [22]: -1% and 2%
